Earlier results, collected in patent US20240265995A1, “System of Predicting Sensitivity of Klebsiella against Cefoxitin and Method” (priority 2023, published 2024).

System: carbapenem resistant Klebsiella pneumoniae
Conditions: carbapenem resistant Klebsiella pneumoniae isolated from 2014 to 2017 (252/403)

SMILES: C[C@@H](O)[C@H]1C(=O)N2C(C(=O)O)=C(S[C@@H]3CN[C@H](C(=O)N(C)C)C3)[C@H](C)[C@H]12 [meropenem]
- resistance rate against meropenem: 62.5%
